Results from PMC4725915, “Ruthenium(II) Complexes with 2-Phenylimidazo[4,5-f][1,10]phenanthroline Derivatives that Strongly Combat Cisplatin-Resistant Tumor Cells” (Scientific Reports, 2016).

Columns and labels:
Format in all cases: cell-based, human
[1] = system: A549; assay: MTT cytotoxicity assay, A549; conditions: A549, 48 h, mean ± SD of three experiments
Protocol: (§1) Compounds 1–4 were evaluated against three tumor cell lines derived from different tissues, including the cervix (HeLa), lung (A549) and cisplatin-resistant lung (A549R) tissues. For comparison, the cytotoxicity of cisplatin was also evaluated. As a control, the toxicities of the complexes were also tested against the normal human cell line (LO2).
The human cervix carcinoma cell line (HeLa), the lung carcinoma cell lines (A549 and A549R), and the human hepatocyte cell line (LO2) were obtained from the Experimental Animal Center at Sun Yat-Sen University (Guangzhou, China). The cells were maintained in Dulbecco’s modified Eagle’s medium (DMEM, Gibco BRL) or Roswell Park Memorial Institute 1640 (RPMI 1640, Gibco BRL) medium supplemented with 10% fetal bovine serum (FBS, Gibco BRL), 100 μg/mL streptomycin, and 100 U/mL penicillin (Gibco BRL) in a humidified incubator under 5% CO2 and 20% O2 at 37 °C. To maintain the resistant phenotype, A549R cells were incubated with 5 μM cisplatin and cultured in drug-free medium for at least a week before use.
(§2) The cytotoxicity of the ruthenium complexes and cisplatin were determined by an MTT assay. Briefly, cells were seeded into 96-well microtiter plates at 1 × 10^4 cells per well and grown overnight at 37 °C in a 5% CO2 incubator; then, different concentrations of the complexes in cell culture medium were added to the cultures. The plates were then incubated in an incubator for 48 h under the same conditions. The stock MTT dye solution (15 μL, 5 mg/mL) was added to each well. After 4 h of incubation, the cultures were removed and 150 μL of DMSO was added to each well. The optical density of each well was measured on a microplate spectrophotometer at a wavelength of 595 nm.

[2] = system: A549R cells; assay: Mitochondrial membrane potential (JC-1); conditions: different concentrations (0.5, 1.0, 2.0 μM), 24 h
From the text: Mitochondria are the principal organelles related to energy metabolism and ATP synthesis; consequently, resistance against chemotherapeutic drugs can often be traced to the mitochondria. […] Mitochondrial dysfunction is involved in apoptotic cell death, and the loss of mitochondrial membrane potential (MMP, ΔΨm) is a hallmark of mitochondrial dysfunction. […] Confocal microscopy and flow cytometry were used to confirm whether complex 4-induced apoptosis occurred by damaging mitochondria, and the cationic dye JC-1 was used as the MMP-sensitive probe.
A549R cells were cultured in 6-well tissue culture plates for 24 h and treated with complex 4 (0.5, 1.0 and 2.0 μM) for 24 h. After the treatment, the cells were collected and resuspended at 1 × 10^6 cells/mL in a pre-warmed staining working solution containing JC-1 (5 μg/mL) and incubated for 15 min at 37 °C. Subsequently, the cells were washed twice with pre-warmed PBS and analyzed immediately with a flow cytometer on a FACS Canto II (BD Biosciences, USA). Red and green mean fluorescence intensities were analyzed using FlowJo 7.6 software (Tree Star, OR, USA). […] After the treatment described above, the stained cells were visualized under an inverted fluorescence microscope (Zeiss Axio Observer D1). JC-1 fluorescence was measured with single excitation (488 nm) and dual emission (shift from green 530 nm to red 590 nm).

[3] = system: cancer cell lines (HeLa, A549, A549R); assay: MTT cytotoxicity, all tested cancer cell lines taken together; conditions: 48 h, read-out: IC50 toward all the tested cancer cell lines
Protocol: as §1, §2

[4] = system: A549R cells; assay: Subcellular distribution study by ICP-MS; conditions: 2.0 μM, 12 h
Protocol: To understand the high sensitivity of cancer cells to Ru(II) complexes, the extent of cellular uptake was investigated with inductively coupled plasma mass spectrometry (ICP-MS) by treating the HeLa, A549, A549R and LO2 cell lines with 2.0 μM concentrations of the Ru(II) complexes and cisplatin for 12 h. […] In this study, the cellular uptake and lipophilicity were distinctly correlated and followed the order: 4 >3 >2 >1. Complex 4 had the best accumulation, but the amount of Ru in LO2 cells was far less than that in the three cancer lines, indicating selective accumulation and improved efficiency for treating cancer. Cisplatin was taken up more efficiently by the sensitive cell line (A549) than by the cisplatin-resistant cell line (A549R). […] However, less than 1.5% of the cellular platinum was accumulated in the mitochondrial fraction of the A549R cells. Therefore, complex 4 could function in a different manner than cisplatin in A549R cells, which would be an appropriate solution to combat cisplatin resistance in tumor cells.
A549R cells were plated at a density of 1 × 10^5 cells/mL in 10 mL of DMEM for 24 h at 37 °C under 5% CO2 and 20% O2. […] The ruthenium or platinum contents were determined using inductively coupled plasma mass spectrometry (ICP-MS Thermo Elemental Co., Ltd.).

[5] = system: A549R cells; assay: Intracellular ROS (DCFH-DA staining); conditions: 0.5 μM, 12 h
Protocol: TrxR is a key enzyme in the regulation of the intracellular redox environment. However, cellular oxidative stress is known to trigger the initiation of apoptotic signaling, which results in cell death. Complex 4 was proven to inhibit the activity of TrxR and could induce severe oxidative stress in A549R cells. To assess the capacity of complex 4 to generate intracellular reactive oxygen species (ROS), A549R cells were treated with different concentrations of complex 4 for 12 h and stained with 2′,7′-dichlorofluorescein diacetate (DCFH-DA)[46]. DCFH-DA is an oxidation-sensitive dye that is specifically detected by measuring the enhanced green fluorescent intensity caused by intracellular ROS. This dye was used to quantify the generation of intracellular ROS. […] These findings were further confirmed with flow cytometric analyses (Fig. 5d).
The generation of reactive oxygen species (ROS) in A549R cells was measured using a ROS sensitive fluorescent probe, 2,7-dichlorodihydrofluorescein diacetate (DCFH-DA). […] The levels of intracellular ROS were examined with an inverted fluorescence microscope (Zeiss Axio Observer D1) and flow cytometry (FACSCanto II, BD Biosciences, USA). The excitation wavelength was 485 nm, and the fluorescence was measured at 530 nm. […]

With Ru(phen)(bzq)(tbtfpip)(PF6) [Complex 4] the IC50 [1] was 1 ± 0.2 µM, the “mitochondrial membrane potential (MMP)” value [2] was “loss of MMP” and the IC50 [3] was 0.8 to 2.4 µM. The “share of cellular metal accumulated in the mitochondrial fraction” value [4] was “over 55%” and the “intracellular ROS levels” value [5] was “increase in ROS”.
